pIC50: −log10 of the molar value. Each block holds one compound with its values, some of them ahead of it.
Columns and labels:
[1] = after IV dosing; Pardee et al. 2014; cited from earlier work
[2] = system: LoVo colorectal cancer cell line; test: Cell viability (Cell Titer-Glo) in LoVo cells; assay type: cell-based; conditions: Homo sapiens, replete media, 48 h incubation, 24 h recovery; for pIC50: first value of IC50/IC90; for IC90: second value of IC50/IC90
Experimental: (§1) Biological activity was assessed in vitro in the following pancreatic cancer and colorectal cancer cell lines. • Pancreatic cancer cell lines • Panc-1: non-metastatic; mutations: KRAS, TP53 • AsPC-1: metastatic; mutations: KRAS, TP53, CDKN2A, MAP2K4 • Colorectal cancer cell lines • LoVo: metastatic; mutations: APC, KRAS, FBXW7, […] • SW620: metastatic; mutations: KRAS, TP53
(§2) Tumor cells were maintained at 37° C. in a humidified 5% CO2 atmosphere in T75 tissue culture flask containing 10 mL of RPMI 1640 (PANC-1), DMEM (AsPC-1), F12K (LoVo) or L15 (SW620), containing 2 mM L-glutamine, 10% fetal bovine serum (FBS) and 1% penicillin and streptomycin. The tumor cells were split at a ratio of 1:5 every 4-5 days by trypsinization and suspended in fresh medium in a new flask. Cells were harvested for experiments at 80-95% confluency.
(§3) PANC-1 cells in RPMI medium with 10% FBS (12,000 cells/well in 96 well plate) were incubated with increasing concentrations (12.5, 25, 50, 100, 150, and 200 µM), of test compound at 37° C. under 5% CO2 for 48 hours. Cells were undergone for another 24 hr recovery, in fresh RPMI media without serum. Cell viability was assessed using the Promega Cell Titer-Glo assay kit, following their protocol. Cell viability was measured based on the amount of ATP produced by the total number of cells present in each well using FLUOSTAR OPTIMA plate reader in the Luminescence mode. Production of ATP in Luminescence unit is directly proportional to the number of live cells. % live cells were calculated and SEM was also calculated as average of 3 replica wells.
(§4) Test compounds were screened for activity in AsPC-1 cells and the colon cancer cells using similar procedures but replacing RPMI with the respective media indicated above for the initial 48 hour incubation (i.e., DMEM (AsPC-1), F12K ( LoVo ), or L15 (SW620)), and RPMI was always used for the 24 hour recovery. Cells seeded for AsPc-1 (25,000 cells/well), LoVo (25,000 cells/well) and SW620 (25,000 cells/well) to achieve ~ 50% confluency after 24 hrs of seeding.

[3] = system: Panc-1 pancreatic cancer cell line; test: Cell viability (Cell Titer-Glo) in Panc-1 cells; assay type: cell-based; conditions: Homo sapiens, replete media, 48 h incubation, 24 h recovery; for pIC50: first value of IC50/IC90; for IC90: second value of IC50/IC90
Experimental: as §1, §2, §3

[4] = system: AsPC-1 pancreatic cancer cell line; test: Cell viability (Cell Titer-Glo) in AsPC-1 cells; assay type: cell-based; conditions: Homo sapiens, ASPC1, replete media, 48 h incubation, 24 h recovery; for pIC50: first value of IC50/IC90
Experimental: as §1, §2, §3, §4

[5] = system: SW620 colorectal cancer cell line; test: Cell viability (Cell Titer-Glo) in SW620 cells; assay type: cell-based; conditions: Homo sapiens, SW-620, replete media, 48 h incubation, 24 h recovery; for pIC50: first value of IC50/IC90
Experimental: as §1, §2, §3, §4

SMILES: O=C(O)CCCCC(CCSCc1ccccc1)SCc1ccccc1 (centres unmarked) [CPI-613, 6,8-bis(benzylsulfanyl)octanoic acid]
half-life [1]: 1 to 2 h

SMILES: [2H]C([2H])(CCC(CCSCc1ccccc1)SCc1ccccc1)CC(=O)O (centres unmarked) [Compound I-10, 6,8-bis(benzylsulfanyl)-3,3-dideuterio-octanoic acid]
pIC50 [2]: < 3.52 | pIC50 [3]: < 3.52

SMILES: [2H]C([2H])(CC(=O)O)C([2H])([2H])CC(CCSCc1ccccc1)SCc1ccccc1 (centres unmarked) [Compound I-24, 6,8-bis(benzylsulfanyl)-3,3,4,4-tetradeuterio-octanoic acid]
pIC50 [2]: < 3.52 | pIC50 [3]: < 3.52

Further lines, results first:

pIC50 [2]: < 3.52 | pIC50 [4]: 3.50 | pIC50 [3]: < 3.52 | pIC50 [5]: < 3.52
SMILES: [2H]C(O)(CCC(CCSCc1ccccc1)SCc1ccccc1)CC(=O)O (centres unmarked) [Compound I-77]

pIC50 [2]: 4.59 | IC90 [2]: 39 µM | pIC50 [4]: 4.55 | IC90 ([4]; second value of IC50/IC90): 65 µM | IC90 [3]: 73 µM | pIC50 [5]: 4.55 | IC90 ([5]; second value of IC50/IC90): 37 µM
SMILES: [2H]C(O)(CCC(CCSCc1ccccc1)SCc1ccccc1)CC(N)=O (centres unmarked) [Compound I-78]

pIC50 [2]: 3.74 | IC90 [2]: 254 µM | pIC50 [3]: 4.36 | IC90 [3]: 282 µM
SMILES: [2H]C(O)(CCC(CCSCc1ccccc1)SCc1ccccc1)CC(=O)N1CCNCC1 (centres unmarked) [Compound I-79]

Source: patent US20230348373A1, “DEUTERATED DERIVATIVES OF 6,8-BIS(BENZYLSULFANYL)OCTANOIC ACID” (Rafael Pharmaceuticals, Inc., priority 2019, published 2023)
